Data published in paper PMC12467535 (Biomedicines, 2025).
Like-named read-outs stand apart in the source and are kept apart here. No end group written: not given here.

Experiments:
[1] = tested on: retinal pigment epithelium (RPE); experiment: Delayed sodium iodate challenge rabbit model, RPE lesion area by fluorescein angiography; type: in vivo, Dutch-belted rabbit; settings: for protection against sodium iodate-induced lesion (lesion size): no statistically significant difference between the two doses
Procedure: A 20 mg/mL stock solution of sodium iodate (NaIO3, Sigma Aldrich, St. Louis, MO, USA, Cat#54007) was prepared in sterile 0.9% injectable saline (Cytiva, Marlborough, MA, USA, Z1376), aliquoted into single-use vials, and stored at −20 °C until use. On the day of dosing, aliquots were thawed at room temperature and used immediately. For NaIO3 administration, rabbits were weighed and anesthetized with 2–5% isoflurane (Dechra, Norwich, United Kingdom, 17033-094-25) delivered in medical-grade oxygen at a flow rate of 1.0 to 1.5 L/min via chamber until sedated, then moved to facemask for the injection procedure. The left ear was shaved and disinfected with […] prior to intravenous injection. An indwelling catheter was inserted into the marginal ear vein and flushed with sterile 0.9% injectable saline to ensure patency. Sodium iodate was administered intravenously at a dose of 18 mg/kg body weight, followed by a 0.3 mL saline flush. […] Ten animals were used in each treatment group and 6 animals served as the naïve control group.
Fluorescein angiography was performed following topical anesthesia of the rabbit eyes with proparacaine hydrochloride 0.5% (Akorn, 24208-730-06) and pharmacologic dilation with tropicamide (Akorn, 17478-102-12) and phenylephrine (Akorn, 17478-206-12). The rabbits were anesthetized with isoflurane and the ear was prepared as stated above. A 50 µL bolus of 10% sodium fluorescein (Akorn, 59399-001-04) was injected into the marginal ear vein and allowed to circulate for at least 2 min prior to imaging. Fundus images were captured (Spectralis, Heidelberg Engineering) to document and quantify the extent of visible choroidal and RPE degeneration in both eyes. The area of RPE depigmentation was quantified using ImageJ software (version 1.51j8). In certain cases where the damage extended well into the periphery it was not possible to image the entire edge of the affected area, and these cases were labeled “too large to grade” and were excluded from the final analysis.
With a favorable pharmacokinetic profile, we next evaluated the durability of ONL1204 protection. […] The dose of the systemic sodium iodate had been selected based on a titration that identified a level of systemic sodium iodate that led to localized and quantifiable damage to the rabbit RPE. This damage was assessed one day after sodium iodate administration by quantifying the depigmented lesion area, defined as regions of visible choroid (“window defect”) on fluorescein angiography (Figure 3A,B).

[2] = tested on: retinal pigment epithelium (RPE); experiment: Chronic CS/HFD apoB100 mouse model of dry AMD, RPE morphology on ZO-1 flatmounts; type: in vivo; settings: apoB100 mice, 6 months CS/HFD, two IVT injections 6 weeks apart; p < 0.05
Excerpt: For the mouse study, an equal number of male and female apolipoproteinB100 (apoB100) mice on a C57/S129 background were used. These animals carry a mutation in the editing gene apobec1, resulting in the predominant production of apoB100 in these mice, contrasting to the majority of mice that predominantly produce apoB48 [24]. For all mice strains, the rd8 mutation was bred out. Mice were fed a standard diet until they were put in the smoking chamber and then were fed a high-fat diet (HFD) consisting of 60% fat, 20% protein, and 20% carbohydrate (Research Diets, Inc., New Brunswick, NJ, USA). The study was approved by the Johns Hopkins IACUC. […]
For retinal and RPE flatmount immunofluorescence confocal microscopy, mice were euthanized and eyes enucleated (7 eyes/treatment group) to be processed for staining for IBA1 (microglia/monocyte marker) and ZO-1 (RPE morphology). […] For retinal quadrants, microglia/monocytes/macrophages, defined by IBA1-immunolabeled cell bodies, were counted in five 20 × power fields per flatmount. For RPE/choroid quadrants, each image was used to measure the RPE cell aspect ratio and the average size per cell using ImageJ after setting a threshold as indicated by the software At least 15 cells were measured/experimental group, with n = 5 animals/group, using our previously published protocol.

[3] = tested on: caspase-8; experiment: Caspase-8 activity assay in RPE lysates of CS/HFD apoB100 mice; type: in vivo; settings: chronic CS/HFD, two IVT injections, p < 0.05
Procedure: (§1) At 8 weeks of age, male and female mice were placed in a smoking chamber for 5 h/day, 5 days/week for 6 months following our published protocol.
After the retina and RPE/choroid were harvested, protein was extracted using RIPA Buffer (Sigma-Aldrich, St Louis, MO, USA) with Proteinase inhibitor and phosphatase inhibitor. Nine eyes per treatment group were used in this assay, and each sample included 75 μg of protein to standardize the amount of tissue with the Luminescent Caspase-Glow 8 assay kit (Promega, Madison, WI, USA) used according to manufacturer’s protocol. […]

[4] = tested on: IBA1+ inflammatory cells in the retina; experiment: IBA1+ cell count in retinal flatmounts of CS/HFD apoB100 mice; type: in vivo; settings: chronic CS/HFD, two IVT injections, p < 0.000001
Procedure: as §1
For retinal and RPE flatmount immunofluorescence confocal microscopy, mice were euthanized and eyes enucleated (7 eyes/treatment group) to be processed for staining for IBA1 (microglia/monocyte marker) and ZO-1 (RPE morphology). The anterior segments were removed, and the retina was carefully separated from the RPE/choroid complex. Tissues were fixed in 2% paraformaldehyde in Tris-buffered saline (TBS) at 4 °C overnight. Retina flatmounts were processed with TBS/1% bovine serum albumin (BSA) and 5% donkey serum overnight at 4 °C. The flatmounts were then incubated with goat polyclonal anti-AIF-1/IBA1 antibody (1:50; Novus biologicals, Centennial, CO, USA) for 48 h at 4 °C, washed, and incubated with donkey anti-goat Cy3 secondary antibody (Abcam, Cambridge, MA, USA) overnight at 4 °C [27]. […] For retinal quadrants, microglia/monocytes/macrophages, defined by IBA1-immunolabeled cell bodies, were counted in five 20 × power fields per flatmount. For RPE/choroid quadrants, each image was used to measure the RPE cell aspect ratio and the average size per cell using ImageJ after setting a threshold as indicated by the software At least 15 cells were measured/experimental group, with n = 5 animals/group, using our previously published protocol.

[5] = rabbit, in vivo
Excerpt: (§2) Prior to injection, each eye was moistened with an ophthalmic Betadine solution, which was then washed out of the eyes with sterile saline. Then, 0.5% proparacaine was applied to the ocular surface prior to the injection.
(§3) For both studies, animals were euthanized at the indicated time points. Eyes were enucleated, snap frozen in liquid nitrogen, and stored frozen until dissection for collection of vitreous, retina, and RPE/choroid for bioanalysis. […] For statistical determination, all values that were below the lower limit of quantification (LLOQ) were considered zero. Pharmacokinetic analysis was performed from the composite concentration versus time data generated for ocular tissue samples through Day 84 using Phoenix WinNonlin (version 8.5.2.4) software.

[6] = minipig, in vivo
Procedure: (§4) Prior to the IVT injection, a combination of 100 mg Telazol, 50 mg ketamine, and 50 mg xylazine per mL of solution was administered via intramuscular injection at 0.03–0.06 mL/kg. For two animals, dexmedetomidine (0.02 or 0.03 mg/kg) was administered as a supplementary anesthetic via intramuscular injection. Proparacaine was then administered to eye, followed by tropicamide. The area surrounding the eye was swabbed with an ophthalmic Betadine solution.
as §3

[7] = minipig, in vivo; remark: listed apart in the source
Procedure: as §4, §3

[8] = in vivo; settings: Dutch-belted, rabbit
Excerpt: as §2, §3

[9] = in vivo; settings: Göttingen, minipig
Procedure: as §4, §3

[10] = human, in vivo; cited from earlier work
[11] = tested on: GA lesion growth; parameters: method as in PMID 37696275, PMID 37865470; settings: patients with geographic atrophy, after one year of treatment, relative to sham; range given for either agent; cited from earlier work
[12] = 10 ug/eye, Average concentration of ONL1204 in RPE/choroid
[13] = 10 ug/eye, Average concentration of ONL1204 in retina
[14] = 50 ug/eye, Average concentration of ONL1204 in RPE/choroid
[15] = 50 ug/eye, Average concentration of ONL1204 in retina
[16] = 100 ug/eye, Average concentration of ONL1204 in RPE/choroid
[17] = 100 ug/eye, Average concentration of ONL1204 in retina
[18] = 200 ug/eye, Average concentration of ONL1204 in RPE/choroid
[19] = 200 ug/eye, Average concentration of ONL1204 in retina
[20] = 300 ug/eye, Average concentration of ONL1204 in RPE/choroid
[21] = 300 ug/eye, Average concentration of ONL1204 in retina

HHIYLGAVNYIY-NH2 (C-terminus assumed) [ONL1204]
protection against sodium iodate-induced lesion (lesion size) ([1]; single IVT 25 µg on Day 0, sodium iodate 18 mg/kg i.v. on Day 4): comparable levels of protection | protection against sodium iodate-induced lesion (lesion size) ([1]; single IVT 100 µg on Day 0, sodium iodate 18 mg/kg i.v. on Day 4): comparable levels of protection | lesion area vs vehicle-treated controls and 25 µg group ([1]; single IVT 100 µg on Day 0, sodium iodate on Day 14): significantly smaller lesion areas | lesion area vs vehicle-treated controls and 25 µg group ([1]; single IVT 100 µg on Day 0, sodium iodate on Day 28): significantly smaller lesion areas | posterior RPE cell area vs vehicle [2]: significantly lower than the control | Caspase-8 activity in whole RPE lysates vs vehicle [3]: significantly reduced | IBA1+ inflammatory cell infiltration in the retina vs vehicle [4]: decreased

HHIYLGAVNYIY-NH2 [ONL1204]
half-life ([5]; 10 ug, calculated vitreous half-life): 147 days | half-life ([5]; 50 ug, calculated vitreous half-life): 116 days | half-life ([5]; 100 ug, calculated vitreous half-life): 124 days | half-life ([5]; vitreous humor half-life): > 100 days | half-life ([6]; half-life calculated from the vitreous humor data): 112 days | half-life ([6]; vitreous humor half-life): > 100 days | half-life calculated from the vitreous humor data [7]: 117.18 days | stability in plasma: rapidly broken down by peptidases | tissue level at time at 24 h [8, 12]: 5.45 ng/g | tissue level at time at 672 h [8, 12]: 10.5 ng/g | tissue level at time at 1344 h [8, 12]: 144 ng/g | tissue level at time at 1992 h [8, 12]: 213 ± 207 ng/g | tissue level at time at 24 h [8, 13]: 11.2 ± 8.4 ng/g | tissue level at time at 672 h [8, 13]: 51 ± 97.9 ng/g | tissue level at time at 1344 h [8, 13]: 14.3 ± 15.1 ng/g | tissue level at time at 24 h [8, 14]: 58 ± 79.8 ng/g | tissue level at time at 672 h [8, 14]: 92.4 ng/g | tissue level at time at 1344 h [8, 14]: 61.8 ng/g | tissue level at time at 1992 h [8, 14]: 209 ± 251 ng/g | tissue level at time at 24 h [8, 15]: 75.6 ± 144 ng/g | tissue level at time at 672 h [8, 15]: 27 ± 36.6 ng/g | tissue level at time at 1344 h [8, 15]: 37.8 ± 48.4 ng/g | tissue level at time at 1992 h [8, 15]: 201 ± 268 ng/g | tissue level at time at 24 h [8, 16]: 174 ± 149 ng/g | tissue level at time at 672 h [8, 16]: 40.6 ng/g | tissue level at time at 1344 h [8, 16]: 36.2 ± 41 ng/g | tissue level at time at 24 h [8, 17]: 183 ± 346 ng/g | tissue level at time at 672 h [8, 17]: 42.3 ± 72.1 ng/g | tissue level at time at 1344 h [8, 17]: 22.7 ± 27.9 ng/g | tissue level at time at 1992 h [8, 17]: 86.1 ± 103 ng/g | tissue level at time at 144 h [9, 18]: 189 ± 160 ng/g | tissue level at time at 672 h [9, 18]: 66.5 ± 87.8 ng/g | tissue level at time at 2112 h [9, 18]: 38.2 ± 21.7 ng/g | tissue level at time at 144 h [9, 19]: 17.8 ± 27.3 ng/g | tissue level at time at 672 h [9, 19]: 2.05 ng/g | tissue level at time at 144 h [9, 20]: 101 ± 91.4 ng/g | tissue level at time at 672 h [9, 20]: 82.4 ± 34.5 ng/g | tissue level at time at 2112 h [9, 20]: 29.8 ng/g | tissue level at time at 144 h [9, 21]: 7.2 ± 6.37 ng/g | tissue level at time at 672 h [9, 21]: 23.8 ± 16.4 ng/g | safety in Phase 1 clinical trial [10]: safe

avacincaptad pegol
reduction of the rate of GA lesion growth [11]: 14–26%

pegcetacoplan
reduction of the rate of GA lesion growth [11]: 14–26%
